Source: patent US20090197975A1, “COMPOSITIONS FORMULATED FOR SOLVENT-REGULATED DRUG RELEASE” (MIV Therapeutics Inc., priority 2005, published 2009)

Assay: Paclitaxel composition droplets immersed in PBS for 72 hours (FIG. 3)
Assay type: physicochemical
Conditions: 72 hours in PBS; DENA and DMSO present as solubilizing agents
Description: FIG. 3 is two photographs comparing three drug compositions formulated in accordance with the invention. Each composition comprises the drug paclitaxel formulated with different compositional ratios of solvents, namely a first solvent comprising a mixture of 70% DENA and 30% DMSO and a second solvent comprising 70% castor oil and 30% soybean oil. The left-hand composition comprises 70% of the first solvent and 30% of the second solvent; the middle composition comprises 60% of the first solvent and 40% of the second solvent; and the right-hand composition comprises 50% of the first solvent and 50% of the second solvent.
In the example of FIG. 3, the release profile of a composition 10 comprising the water-insoluble lipophilic drug paclitaxel was investigated. Paclitaxel is a well-known chemotherapy agent. FIG. 3 compares three drug compositions comprising paclitaxel formulated with different compositional ratios of first and second solvents 14, 18. The concentration of paclitaxel is maintained at 20 weight percent in first solvent 14. In this example, first solvent 14 comprises a mixture of 70% DENA and 30% DMSO and second solvent 18 comprises 70% castor oil and 30% soybean oil. […]

paclitaxel precipitate visually detected in the PBS: No white precipitate
Compound: CC(=O)O[C@H]1C(=O)[C@@]2(C)[C@H]([C@H](OC(=O)c3ccccc3)[C@]3(O)C[C@H](OC(=O)[C@H](O)[C@@H](NC(=O)c4ccccc4)c4ccccc4)C(C)=C1C3(C)C)[C@]1(OC(C)=O)CO[C@@H]1C[C@@H]2O [paclitaxel]
